The text below walks through data of ChEMBL document CHEMBL5550132, “Structure-activity relationship in NOD2 agonistic muramyl dipeptides” (Eur J Med Chem, 2024).

SMILES strings stand for the structures.

The target in assay [1] is T1, Nuclear factor NF-kappa-B complex (Homo sapiens) (UniProt Q00653+P19838+Q04206). In words: Activation of NF-KappaB (unknown origin) expressed in HEK293T cells assessed as fold change at 10 ng incubated for 12 hrs by Renilla luciferase assay. The class given is cell-based. As to conditions: filed as activator.
Assay [2] addresses T1, Nuclear factor NF-kappa-B complex (Homo sapiens). Nature of the assay: Activation of NF-KappaB (unknown origin) expressed in HEK293T cells assessed as fold change at 10 nM incubated for 12 hrs by Renilla luciferase assay. The class given is cell-based. As to conditions: filed as activator.
For assay [3] the target is unchanged. Nature of the assay: Activation of NF-KappaB (unknown origin) expressed in HEK293T cells assessed as fold change at 100 nM incubated for 12 hrs by Renilla luciferase assay. The class given is cell-based. The note with it: filed as activator.
The target is the same in assay [4]. In words: Activation of NF-KappaB (unknown origin) expressed in HEK293T cells assessed as fold change at 1000 nM incubated for 12 hrs by Renilla luciferase assay. The format is cell-based. As to conditions: filed as activator.
The target is the same in assay [5]. In words: Activation of NF-KappaB (unknown origin) expressed in HEK293T cells assessed as fold change at 1 uM incubated for 12 hrs by Renilla luciferase assay. The class given is cell-based. The note with it: filed as activator.
The species entered for a further assay is Cavia porcellus. In words: Induction of delayed type hypersensitivity in ABA-BSA immunized Hartley Guinea pigs assessed as reduction in skin lesions at 100 ug measured for 24 hrs. The format is functional. The note with it: dose 100 µg.

T1 sequence (P19838 whole entry, looked up): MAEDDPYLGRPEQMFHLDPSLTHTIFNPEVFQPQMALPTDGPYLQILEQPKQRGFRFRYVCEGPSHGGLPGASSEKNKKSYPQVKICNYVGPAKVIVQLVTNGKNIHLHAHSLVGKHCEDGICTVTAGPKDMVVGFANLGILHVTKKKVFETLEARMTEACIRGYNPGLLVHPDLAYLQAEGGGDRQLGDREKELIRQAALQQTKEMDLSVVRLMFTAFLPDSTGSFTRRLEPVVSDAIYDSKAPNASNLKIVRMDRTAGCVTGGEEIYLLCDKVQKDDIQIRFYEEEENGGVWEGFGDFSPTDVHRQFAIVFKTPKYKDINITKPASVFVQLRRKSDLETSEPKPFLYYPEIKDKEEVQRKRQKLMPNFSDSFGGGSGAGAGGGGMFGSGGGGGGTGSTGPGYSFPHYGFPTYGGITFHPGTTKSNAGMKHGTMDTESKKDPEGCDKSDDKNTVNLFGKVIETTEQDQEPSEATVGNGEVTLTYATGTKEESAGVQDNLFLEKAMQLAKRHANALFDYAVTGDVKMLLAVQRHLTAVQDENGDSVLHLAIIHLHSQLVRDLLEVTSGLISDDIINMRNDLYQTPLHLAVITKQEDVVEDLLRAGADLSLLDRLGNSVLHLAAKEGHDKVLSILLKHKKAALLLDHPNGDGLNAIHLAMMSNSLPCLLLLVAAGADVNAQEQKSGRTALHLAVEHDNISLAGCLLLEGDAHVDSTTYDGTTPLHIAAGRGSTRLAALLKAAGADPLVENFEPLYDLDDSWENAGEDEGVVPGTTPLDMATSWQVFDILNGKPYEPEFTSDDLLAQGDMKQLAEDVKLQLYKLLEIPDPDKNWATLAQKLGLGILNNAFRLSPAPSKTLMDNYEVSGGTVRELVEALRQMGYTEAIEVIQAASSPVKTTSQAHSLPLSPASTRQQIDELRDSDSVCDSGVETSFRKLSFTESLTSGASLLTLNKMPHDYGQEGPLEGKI
T1 sequence (Q00653 whole entry, looked up): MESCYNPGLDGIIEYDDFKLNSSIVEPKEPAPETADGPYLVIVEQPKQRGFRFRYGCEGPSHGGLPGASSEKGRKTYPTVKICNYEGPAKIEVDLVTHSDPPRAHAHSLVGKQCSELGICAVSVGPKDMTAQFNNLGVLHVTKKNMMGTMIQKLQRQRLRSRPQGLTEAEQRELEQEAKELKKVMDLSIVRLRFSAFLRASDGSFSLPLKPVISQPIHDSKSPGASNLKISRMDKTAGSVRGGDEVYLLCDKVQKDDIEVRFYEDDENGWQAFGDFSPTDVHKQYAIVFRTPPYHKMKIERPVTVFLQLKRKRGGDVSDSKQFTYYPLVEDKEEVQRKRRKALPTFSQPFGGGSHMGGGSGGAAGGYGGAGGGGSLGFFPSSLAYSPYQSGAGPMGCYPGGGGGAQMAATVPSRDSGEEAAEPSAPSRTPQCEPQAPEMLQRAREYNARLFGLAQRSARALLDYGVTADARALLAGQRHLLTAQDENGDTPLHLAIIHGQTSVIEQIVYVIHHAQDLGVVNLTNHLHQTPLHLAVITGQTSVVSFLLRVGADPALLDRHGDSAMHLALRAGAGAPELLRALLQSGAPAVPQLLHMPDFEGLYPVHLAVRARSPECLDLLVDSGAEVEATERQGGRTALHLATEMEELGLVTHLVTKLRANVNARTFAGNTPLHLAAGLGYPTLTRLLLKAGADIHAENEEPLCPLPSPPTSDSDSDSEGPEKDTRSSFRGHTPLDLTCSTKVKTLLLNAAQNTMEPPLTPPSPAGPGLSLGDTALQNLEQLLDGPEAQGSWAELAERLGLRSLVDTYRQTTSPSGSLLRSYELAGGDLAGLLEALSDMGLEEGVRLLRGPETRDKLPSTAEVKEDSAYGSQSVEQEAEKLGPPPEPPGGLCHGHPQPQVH
T1 sequence (Q04206 whole entry, looked up): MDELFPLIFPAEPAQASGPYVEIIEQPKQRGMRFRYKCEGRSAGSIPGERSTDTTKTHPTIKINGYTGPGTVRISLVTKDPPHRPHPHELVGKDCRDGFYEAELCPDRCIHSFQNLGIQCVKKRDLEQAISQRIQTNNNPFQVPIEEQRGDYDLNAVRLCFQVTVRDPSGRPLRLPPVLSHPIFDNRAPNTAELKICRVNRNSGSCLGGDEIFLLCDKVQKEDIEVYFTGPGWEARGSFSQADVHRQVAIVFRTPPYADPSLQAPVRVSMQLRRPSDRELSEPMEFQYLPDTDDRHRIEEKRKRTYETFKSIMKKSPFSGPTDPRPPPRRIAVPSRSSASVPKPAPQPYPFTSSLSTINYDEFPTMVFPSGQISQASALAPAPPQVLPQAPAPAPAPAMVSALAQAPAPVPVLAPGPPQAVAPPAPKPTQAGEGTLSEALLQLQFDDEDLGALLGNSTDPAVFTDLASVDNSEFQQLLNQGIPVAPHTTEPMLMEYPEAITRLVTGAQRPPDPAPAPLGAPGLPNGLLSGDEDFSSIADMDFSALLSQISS

Take `CCOC(=O)[C@@H](CCC(=O)O)NC(=O)[C@H](C)NC(=O)[C@@H](C)O[C@H]1[C@H](O)[C@@H](CO)O[C@@H](O)[C@@H]1NC(C)=O`: the fold change (FC) in assay [1] amounted to 4; in assay [2] it was 4; in assay [3], 6.3; in assay [4], 6.6.

Consider `CCCCCCCCC(=O)N[C@@H]1[C@@H](O[C@H](C)C(=O)N[C@@H](C)C(=O)N[C@H](CCC(=O)O)C(N)=O)[C@H](O)[C@@H](CO)O[C@H]1O`, for which the fold change (FC) in assay [5] was found to be 2.4.

For `CC(=O)N[C@@H]1[C@@H](O[C@H](C)C(=O)N[C@@H](C)C(=O)N[C@H](CC(=O)O)C(N)=O)[C@H](O)[C@@H](CO)O[C@H]1O`, the fold change (FC) worked out at 1.85 in assay [2], 1.87 in assay [3] and 1.9 in assay [4].

As to `CCOC(=O)CC[C@@H](NC(=O)[C@H](C)NC(=O)[C@@H](C)O[C@H]1[C@H](O)[C@@H](CO)O[C@@H](O)[C@@H]1NC(C)=O)C(N)=O`, the fold change (FC) in assay [1] is 1.6; in assay [2] it was 1.6; in assay [3], 2.8; in assay [4] it was 5.6.

Turning to `C[C@H](NC(=O)[C@@H](C)O[C@H]1[C@H](O)[C@@H](CO)O[C@@H](O)[C@@H]1NC(=O)CN)C(=O)N[C@H](CCC(=O)O)C(N)=O`, the fold change (FC) in assay [5] stood at 4.5.

As for `CCOC(=O)CC[C@@H](NC(=O)[C@H](C)NC(=O)[C@@H](C)O[C@H]1[C@H](O)[C@@H](CO)O[C@@H](O)[C@@H]1NC(C)=O)C(=O)OCC`, the fold change (FC) in assay [1] was 2.3; in assay [2], 2.3; in assay [3], 4.7; in assay [4] it was 6.5.

On to `C[C@H](NC(=O)[C@@H](C)O[C@@H]1[C@@H](N)[C@H](O)O[C@H](CO)[C@H]1O)C(=O)N[C@H](CCC(=O)O)C(N)=O`, for which the fold change (FC) in assay [5] is 4.6.

Take `CCCCC(=O)N[C@H]1[C@H](OC)O[C@H](CO)[C@@H](O)[C@@H]1O[C@H](C)C(=O)N[C@@H](C)C(=O)N[C@H](CCC(=O)O)C(N)=O`: in assay [5], the fold change (FC) was found to be 5.25.

Turning to `CCCCCCCCC(=O)N[C@H]1[C@H](OC)O[C@H](CO)[C@@H](O)[C@@H]1O[C@H](C)C(=O)N[C@@H](C)C(=O)N[C@H](CCC(=O)O)C(N)=O`, the fold change (FC) in assay [5] was determined as 4.3.

Regarding `CC(=O)N[C@@H]1[C@@H](O[C@H](C)C(=O)N[C@@H](C)C(=O)N[C@H](CCC(=O)O)C(=O)OCCCl)[C@H](O)[C@@H](CO)O[C@H]1O`, the fold change (FC) in assay [1] is 4.2; in assay [2], 4.2; in assay [3] it was 6.6; in assay [4], 6.55.

On to `CC(=O)N[C@@H]1[C@@H](O[C@H](C)C(=O)N[C@@H](C)C(=O)N[C@H](CCC(=O)O)C(=O)OC2CCCCC2)[C@H](O)[C@@H](CO)O[C@H]1O`, for which the fold change (FC) is 4.6 in assay [1], 4.6 in assay [2], 6.8 in assay [3] and 6.55 in assay [4].

Consider `CC(=O)N[C@@H]1[C@@H](O[C@H](C)C(=O)N[C@@H](C)C(=O)N[C@H](CCC(=O)O)C(=O)O)[C@H](O)[C@@H](CO)O[C@H]1O`, for which the fold change (FC) in assay [1] is 2.5; in assay [2], 2.5; in assay [3], 4.5; in assay [4], 6.1.

As for `CO[C@@H]1O[C@H](CO)[C@@H](O)[C@H](O[C@H](C)C(=O)N[C@@H](C)C(=O)N[C@H](CCC(=O)O)C(N)=O)[C@H]1N`, the fold change (FC) in assay [5] was determined as 6.2.

Regarding `CCCCC(=O)N[C@@H]1[C@@H](O[C@H](C)C(=O)N[C@@H](C)C(=O)N[C@H](CCC(=O)O)C(N)=O)[C@H](O)[C@@H](CO)O[C@H]1O`, the fold change (FC) in assay [5] turned out to be 4.5.

For the compound `CC(=O)N[C@@H]1[C@@H](O[C@H](C)C(=O)N[C@@H](C)C(=O)N[C@H](CCC(=O)O)C(=O)OCCc2ccccc2)[C@H](O)[C@@H](CO)O[C@H]1O`, the fold change (FC) in assay [1] was determined as 5.6; in assay [2], 5.6; in assay [3] it was 7; in assay [4] it was 6.

As to `COCC(=O)N[C@H]1[C@H](OC)O[C@H](CO)[C@@H](O)[C@@H]1O[C@H](C)C(=O)N[C@@H](C)C(=O)N[C@H](CCC(=O)O)C(N)=O`, the fold change (FC) in assay [5] stood at 5.55.

In the case of `CCCCNC(=O)[C@@H](CCC(=O)O)NC(=O)[C@H](C)NC(=O)[C@@H](C)O[C@H]1[C@H](O)[C@@H](CO)O[C@@H](O)[C@@H]1NC(C)=O`, the fold change (FC) came to 1.1 in assay [1], 1.1 in assay [2], 1.1 in assay [3] and 2.1 in assay [4].

For the compound `COCC(=O)N[C@@H]1[C@@H](O[C@H](C)C(=O)N[C@@H](C)C(=O)N[C@H](CCC(=O)O)C(N)=O)[C@H](O)[C@@H](CO)O[C@H]1O`, the fold change (FC) in assay [5] was 4.4.

On to `C[C@H](NC(=O)[C@@H](C)O[C@H]1[C@H](O)[C@@H](CO)O[C@@H](O)[C@@H]1NC(=O)Cc1c(F)c(F)c(F)c(F)c1F)C(=O)N[C@H](CCC(=O)O)C(N)=O`, for which the fold change (FC) in assay [5] worked out at 5.4.

On to `CO[C@@H]1O[C@H](CO)[C@@H](O)[C@H](O[C@H](C)C(=O)N[C@@H](C)C(=O)N[C@H](CCC(=O)O)C(N)=O)[C@H]1NC(=O)CO`, for which, in assay [5], the fold change (FC) came out at 5.9.

Take `C[C@H](NC(=O)[C@@H](C)O[C@H]1[C@H](O)[C@@H](CO)O[C@@H](O)[C@@H]1NC(=O)Cc1ccccc1)C(=O)N[C@H](CCC(=O)O)C(N)=O`: in assay [5], the fold change (FC) stood at 3.85.

Regarding `C[C@H](NC(=O)CO[C@H]1[C@H](O)[C@@H](CO)O[C@@H](O)[C@@H]1NC(=O)CO)C(=O)N[C@H](CCC(=O)O)C(N)=O`, in assay [5], the fold change (FC) amounted to 5.8.

Consider `C[C@H](NC(=O)[C@@H](C)O[C@H]1[C@H](O)[C@@H](CO)O[C@@H](OCCCCN)[C@@H]1NC(=O)CO)C(=O)N[C@H](CCC(=O)O)C(N)=O`, for which, in assay [5], the fold change (FC) worked out at 5.

In the case of `CC(=O)N[C@@H]1[C@@H](O[C@H](C)C(=O)N[C@@H](C)C(=O)N[C@H](CCC(=O)O)C(=O)NC2CCCCC2)[C@H](O)[C@@H](CO)O[C@H]1O`, the fold change (FC) in assay [1] turned out to be 1; in assay [2] it was 1; in assay [3], 1; in assay [4] it was 2.9.

For the compound `CCCCCCCCCCCCCCCCCC(=O)NC[C@H]1O[C@@H](O)[C@H](N)[C@@H](O[C@H](C)C(=O)N[C@H](C(=O)N[C@H](CCC(=O)O)C(N)=O)C(C)C)[C@@H]1O`, the Activity in the assay listed under Cavia porcellus came to 4.3 mm.

For `CCCCCCCCCCCCCCCCOC(=O)[C@@H](CCC(=O)O)NC(=O)[C@H](C)NC(=O)[C@@H](C)O[C@H]1[C@H](O)[C@@H](CO)O[C@@H](O)[C@@H]1NC(C)=O`, the fold change (FC) in assay [1] worked out at 5.3; in assay [2], 5.3; in assay [3], 7; in assay [4], 4.9.

As to `C[C@H](NC(=O)[C@@H](C)O[C@H]1[C@H](O)[C@@H](CO)O[C@@H](O)[C@@H]1NC(=O)CO)C(=O)N[C@H](CCC(=O)O)C(N)=O`, the fold change (FC) in assay [5] stood at 4.5.

Take `CCCCCCCCCCCCOC(=O)[C@@H](CCC(=O)O)NC(=O)[C@H](C)NC(=O)[C@@H](C)O[C@H]1[C@H](O)[C@@H](CO)O[C@@H](O)[C@@H]1NC(C)=O`: the fold change (FC) in assay [1] is 7.5; in assay [2], 7.5; in assay [3], 6.5; in assay [4] it was 6.3.

Regarding `CC(=O)N[C@@H]1[C@@H](O[C@H](C)C(=O)N[C@@H](C)C(=O)N[C@H](CCC(=O)O)C(=O)NCC(F)(F)C(F)(F)F)[C@H](O)[C@@H](CO)O[C@H]1O`, the fold change (FC) in assay [1] is 0.8; in assay [2] it was 0.8; in assay [3], 0.9; in assay [4] it was 2.4.

As to `CCCCOC(=O)[C@@H](CCC(=O)O)NC(=O)[C@H](C)NC(=O)[C@@H](C)O[C@H]1[C@H](O)[C@@H](CO)O[C@@H](O)[C@@H]1NC(C)=O`, the fold change (FC) in assay [1] amounted to 4.7; in assay [2], 4.7; in assay [3], 7.1; in assay [4], 7.8.

Consider `CCCCCO[C@@H]1O[C@H](CO)[C@@H](O)[C@H](O[C@H](C)C(=O)N[C@@H](C)C(=O)N[C@H](CCC(=O)O)C(N)=O)[C@H]1NC(=O)CO`, for which, in assay [5], the fold change (FC) turned out to be 4.5.

In the case of `CO[C@@H]1O[C@H](CO)[C@@H](O)[C@H](O[C@H](C)C(=O)N[C@@H](C)C(=O)N[C@H](CCC(=O)O)C(N)=O)[C@H]1NC(=O)Cc1c(F)c(F)c(F)c(F)c1F`, the fold change (FC) in assay [5] was 5.

`CCCCCCCCOC(=O)[C@@H](CCC(=O)O)NC(=O)[C@H](C)NC(=O)[C@@H](C)O[C@H]1[C@H](O)[C@@H](CO)O[C@@H](O)[C@@H]1NC(C)=O`: the fold change (FC) worked out at 6.1 in assay [1], 6.1 in assay [2], 6.9 in assay [3] and 6.3 in assay [4].

Regarding `CCCCCCNC(=O)[C@@H](CCC(=O)O)NC(=O)[C@H](C)NC(=O)[C@@H](C)O[C@H]1[C@H](O)[C@@H](CO)O[C@@H](O)[C@@H]1NC(C)=O`, the fold change (FC) in assay [1] was determined as 1.1; in assay [2] it was 1.1; in assay [3] it was 1.15; in assay [4], 2.8.

On to `CCCCCCCCCCCO[C@@H]1O[C@H](CO)[C@@H](O)[C@H](O[C@H](C)C(=O)N[C@@H](C)C(=O)N[C@H](CCC(=O)O)C(N)=O)[C@H]1NC(=O)CO`, for which the fold change (FC) in assay [5] worked out at 4.85.

`CCCCCCCCCCCCCCCCCCCCOC(=O)[C@@H](CCC(=O)O)NC(=O)[C@H](C)NC(=O)[C@@H](C)O[C@H]1[C@H](O)[C@@H](CO)O[C@@H](O)[C@@H]1NC(C)=O`: the fold change (FC) in assay [1] was determined as 5.7; in assay [2], 5.7; in assay [3], 7.35; in assay [4] it was 5.7.

As for `CO[C@@H]1O[C@H](CO)[C@@H](O)[C@H](O[C@H](C)C(=O)N[C@@H](C)C(=O)N[C@H](CCC(=O)O)C(N)=O)[C@H]1NC(=O)Cc1ccccc1`, the fold change (FC) in assay [5] was determined as 4.45.
